#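 Briefly, cells in 96-well plates were exposed to five compound concentrations for 48 h, and endpoints were estimated by linear interpolation. Definition used: TGI = concentration required for complete inhibition of growth.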
# What was measured:
# Assay in all cases: inhibition of tumour cell growth, NCI panel, 48 h
# RXF 393 renal = test system: RXF 393 renal
# NCI-H522 lung = test system: NCI-H522 lung
# NCI-H23 lung = test system: NCI-H23 lung
# MALME-3M melanoma = test system: MALME-3M melanoma
# MDA-MB-435 = test system: MDA-MB-435
# ACHN renal = test system: ACHN renal
# U251 CNS = test system: U251 CNS
# DU-145 prostate = test system: DU-145 prostate
# A498 renal = test system: A498 renal
# K-562 leukemia = test system: K-562 leukemia
# OVCAR-3 ovarian = test system: OVCAR-3 ovarian
# HOP-92 NSCLC = test system: HOP-92 NSCLC
# EKVX NSCLC = test system: EKVX NSCLC
# NCI/ADR-RES ovarian = test system: NCI/ADR-RES ovarian
# HCT-15 colon = test system: HCT-15 colon
# MDA-MB-231 breast = test system: MDA-MB-231 breast
# SNB-75 CNS = test system: SNB-75 CNS
# SW-620 colon = test system: SW-620 colon
# IGROV1 ovarian = test system: IGROV1 ovarian
# PC-3 prostate = test system: PC-3 prostate
# LOX IMVI melanoma = test system: LOX IMVI melanoma
# BT-549 breast = test system: BT-549 breast
# OVCAR-8 ovarian = test system: OVCAR-8 ovarian
# OVCAR-5 ovarian = test system: OVCAR-5 ovarian
# UACC-257 melanoma = test system: UACC-257 melanoma
# SNB-19 CNS = test system: SNB-19 CNS
# SK-MEL-5 melanoma = test system: SK-MEL-5 melanoma
# SF-268 CNS = test system: SF-268 CNS
# A549 NSCLC = test system: A549 NSCLC
# SK-OV-3 ovarian = test system: SK-OV-3 ovarian
# COLO 205 colon = test system: COLO 205 colon
# MCF7 breast = test system: MCF7 breast
# CCRF-CEM leukemia = test system: CCRF-CEM leukemia
# SF-539 CNS = test system: SF-539 CNS
# CAKI-1 renal = test system: CAKI-1 renal
# HS 578T breast = test system: HS 578T breast
# OVCAR-4 ovarian = test system: OVCAR-4 ovarian
# HOP-62 NSCLC = test system: HOP-62 NSCLC
# UO-31 renal = test system: UO-31 renal
# TK-10 renal = test system: TK-10 renal
# NCI-H460 lung = test system: NCI-H460 lung
# M14 melanoma = test system: M14 melanoma
# 786-0 renal = test system: 786-0 renal
# SF-295 CNS = test system: SF-295 CNS
# T-47D breast = test system: T-47D breast
# SK-MEL-2 melanoma = test system: SK-MEL-2 melanoma
# HCC-2998 colon = test system: HCC-2998 colon
# SN12C renal = test system: SN12C renal
# HCT-116 colon = test system: HCT-116 colon
# KM12 colon = test system: KM12 colon
# RPMI-8226 leukemia = test system: RPMI-8226 leukemia
# MOLT-4 leukemia = test system: MOLT-4 leukemia
# SK-MEL-28 melanoma = test system: SK-MEL-28 melanoma
# HT29 colon = test system: HT29 colon
# MDA-N = test system: MDA-N
# NCI-H226 lung = test system: NCI-H226 lung
# UACC-62 melanoma = test system: UACC-62 melanoma
# HL-60(TB) leukemia = test system: HL-60(TB) leukemia
smiles,measurement,setting,value
CCOC(=O)C1=CC(C)(C(=O)OCC)Nc2c(nc(SC)[nH]c2=O)N1 (stereo unspecified),TGI,RXF 393 renal,> 10 µM
same,TGI,NCI-H522 lung,> 10 µM
same,TGI,NCI-H23 lung,> 10 µM
same,TGI,MALME-3M melanoma,> 10 µM
same,TGI,MDA-MB-435,> 10 µM
same,TGI,ACHN renal,> 10 µM
same,TGI,U251 CNS,> 10 µM
same,TGI,DU-145 prostate,> 10 µM
same,TGI,A498 renal,> 10 µM
same,TGI,K-562 leukemia,> 10 µM
same,TGI,OVCAR-3 ovarian,> 10 µM
same,TGI,HOP-92 NSCLC,> 10 µM
same,TGI,EKVX NSCLC,> 10 µM
same,TGI,NCI/ADR-RES ovarian,> 10 µM
same,TGI,HCT-15 colon,> 10 µM
same,TGI,MDA-MB-231 breast,> 10 µM
same,TGI,SNB-75 CNS,> 10 µM
same,TGI,SW-620 colon,> 10 µM
same,TGI,IGROV1 ovarian,> 10 µM
same,TGI,PC-3 prostate,> 10 µM
same,TGI,LOX IMVI melanoma,> 10 µM
same,TGI,BT-549 breast,> 10 µM
same,TGI,OVCAR-8 ovarian,> 10 µM
same,TGI,OVCAR-5 ovarian,> 10 µM
same,TGI,UACC-257 melanoma,> 10 µM
same,TGI,SNB-19 CNS,> 10 µM
same,TGI,SK-MEL-5 melanoma,> 10 µM
same,TGI,SF-268 CNS,> 10 µM
same,TGI,A549 NSCLC,> 10 µM
same,TGI,SK-OV-3 ovarian,> 10 µM
same,TGI,COLO 205 colon,> 10 µM
same,TGI,MCF7 breast,> 10 µM
same,TGI,CCRF-CEM leukemia,> 10 µM
same,TGI,SF-539 CNS,> 10 µM
same,TGI,CAKI-1 renal,> 10 µM
same,TGI,HS 578T breast,> 10 µM
same,TGI,OVCAR-4 ovarian,> 10 µM
same,TGI,HOP-62 NSCLC,> 10 µM
same,TGI,UO-31 renal,> 10 µM
same,TGI,TK-10 renal,> 10 µM
same,TGI,NCI-H460 lung,> 10 µM
same,TGI,M14 melanoma,> 10 µM
same,TGI,786-0 renal,> 10 µM
same,TGI,SF-295 CNS,> 10 µM
same,TGI,T-47D breast,> 10 µM
same,TGI,SK-MEL-2 melanoma,> 10 µM
same,TGI,HCC-2998 colon,> 10 µM
same,TGI,SN12C renal,> 10 µM
same,TGI,HCT-116 colon,> 10 µM
same,TGI,KM12 colon,> 10 µM
same,TGI,RPMI-8226 leukemia,> 10 µM
same,TGI,MOLT-4 leukemia,> 10 µM
same,TGI,SK-MEL-28 melanoma,> 10 µM
same,TGI,HT29 colon,> 10 µM
same,TGI,MDA-N,> 10 µM
same,TGI,NCI-H226 lung,> 10 µM
C/C=C1/C[C@@H](C)[C@@](C)(O)C(=O)OCC2=CC[N+]3([O-])CC[C@@H](OC1=O)[C@@H]23 (stereo partly specified),TGI,NCI-H522 lung,> 100 µM
same,TGI,NCI-H23 lung,> 100 µM
same,TGI,MALME-3M melanoma,> 100 µM
same,TGI,MDA-MB-435,> 100 µM
same,TGI,ACHN renal,> 100 µM
same,TGI,U251 CNS,> 100 µM
same,TGI,DU-145 prostate,> 100 µM
same,TGI,A498 renal,> 100 µM
same,TGI,K-562 leukemia,> 100 µM
same,TGI,OVCAR-3 ovarian,> 100 µM
same,TGI,HOP-92 NSCLC,> 100 µM
same,TGI,EKVX NSCLC,> 100 µM
same,TGI,NCI/ADR-RES ovarian,> 100 µM
same,TGI,HCT-15 colon,> 100 µM
same,TGI,MDA-MB-231 breast,> 100 µM
same,TGI,SNB-75 CNS,> 100 µM
same,TGI,SW-620 colon,> 100 µM
same,TGI,IGROV1 ovarian,> 100 µM
same,TGI,PC-3 prostate,> 100 µM
same,TGI,LOX IMVI melanoma,> 100 µM
same,TGI,BT-549 breast,> 100 µM
same,TGI,OVCAR-8 ovarian,> 100 µM
same,TGI,OVCAR-5 ovarian,> 100 µM
same,TGI,UACC-257 melanoma,> 100 µM
same,TGI,SNB-19 CNS,> 100 µM
same,TGI,SK-MEL-5 melanoma,> 100 µM
same,TGI,SF-268 CNS,> 100 µM
same,TGI,A549 NSCLC,> 100 µM
same,TGI,SK-OV-3 ovarian,> 100 µM
same,TGI,COLO 205 colon,> 100 µM
same,TGI,MCF7 breast,> 100 µM
same,TGI,CCRF-CEM leukemia,> 100 µM
same,TGI,SF-539 CNS,> 100 µM
same,TGI,CAKI-1 renal,> 100 µM
same,TGI,HS 578T breast,> 100 µM
same,TGI,OVCAR-4 ovarian,> 100 µM
same,TGI,UACC-62 melanoma,> 100 µM
same,TGI,UO-31 renal,> 100 µM
same,TGI,HL-60(TB) leukemia,> 100 µM
same,TGI,TK-10 renal,> 100 µM
same,TGI,NCI-H460 lung,> 100 µM
same,TGI,M14 melanoma,> 100 µM
same,TGI,786-0 renal,> 100 µM
same,TGI,SF-295 CNS,> 100 µM
same,TGI,T-47D breast,> 100 µM
same,TGI,SK-MEL-2 melanoma,> 100 µM
same,TGI,HCC-2998 colon,> 100 µM
same,TGI,SN12C renal,> 100 µM
same,TGI,HCT-116 colon,> 100 µM
same,TGI,KM12 colon,> 100 µM
same,TGI,MOLT-4 leukemia,> 100 µM
same,TGI,SK-MEL-28 melanoma,> 100 µM
same,TGI,HT29 colon,> 100 µM
same,TGI,MDA-N,> 100 µM
same,TGI,NCI-H226 lung,> 100 µM

# From PubChem BioAssay (NCI)
